Assay results taken from PubChem BioAssay (NCI).
Values joined by “and” are separate entries in the source; they are usually repeats but may differ in a detail not shown here. Equal values may be shown once.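 The compound was tested at five concentrations on cells cultured in 96-well plates, with a 48-hour exposure period. At the GI50, growth is halved. TGI: concentration producing complete growth inhibition.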

How the values were obtained:
Test in all cases: NCI-60 cell line screen, 48 h
HOP-18 NSCLC = test system: HOP-18 NSCLC
M19-MEL melanoma = test system: M19-MEL melanoma
XF 498 CNS = test system: XF 498 CNS
SNB-78 CNS = test system: SNB-78 CNS
MDA-MB-435 = test system: MDA-MB-435
T-47D breast = test system: T-47D breast
MCF7 breast = test system: MCF7 breast
RXF-631 renal = test system: RXF-631 renal
MDA-N = test system: MDA-N

Structure (SMILES) | TGI (HOP-18 NSCLC) | TGI (M19-MEL melanoma) | TGI (XF 498 CNS) | TGI (SNB-78 CNS) | GI50 (MDA-MB-435) | TGI (MDA-MB-435) | GI50 (T-47D breast) | TGI (T-47D breast) | GI50 (MCF7 breast) | TGI (MCF7 breast) | TGI (RXF-631 renal) | GI50 (MDA-N) | TGI (MDA-N)
OC1CN(OC/C=C/c2ccccc2)CC(O)C1O (stereo not drawn) | > 100 µM | > 100 µM | > 100 µM | > 100 µM |  |  |  |  |  |  |  |  | 
COc1cc2c(cc1OCCCCNC(=O)c1cc3ccccc3[nH]1)N=CC1CCCN1C2=O (stereo not drawn) |  |  |  |  | 20.3 µM | 74.6 µM | 21.7 µM | > 100 µM | 6.82 µM | > 100 µM |  |  | 
COc1ccc(Nc2c3ccccc3nc3c2c2ccccc2n3C)cc1 |  |  |  |  | 30.5 µM | > 100 µM |  |  | 28.3 µM | 86.3 µM |  |  | 
COc1ccc2c(=O)c([Se]c3coc4cc(OC)ccc4c3=O)coc2c1 | > 100 µM | > 100 µM | > 100 µM | 67 µM |  |  |  |  |  |  |  |  | 
NC(=O)c1ccccc1NC(=O)C(=O)C(C(=O)c1ccc2ccccc2c1)C1OC(=O)c2ccccc21 (stereo not drawn) | 22.7 µM | 25.5 µM | 12.8 µM | > 100 µM |  |  |  |  |  |  |  |  | 
N/C(=N\O)c1ncc(-c2ccc(C(F)(F)F)cc2)c(NC2CCCCCC2)n1 |  |  |  |  | 3.76 µM | 17 µM | 6.89 µM and 3.59 µM | 16.8 µM | 4.65 µM and 1.43 µM | 12.3 µM |  |  | 
CCCCCCCCCCCCCCCCOC(=O)C(C(=O)OCCCCCCCCCCCCCCCC)[N+](C)(C)CCOC(C)=O | 30.3 µM | 30.4 µM |  | 45.7 µM |  |  |  |  |  |  | 30.5 µM |  | 
CC/C(=N\Nc1nc2ccccc2n1C)c1ccccn1 |  |  |  |  | 0.224 µM | 12.7 µM | < 0.01 µM | 4.59 µM | 0.0179 µM | 13.9 µM |  |  | 
O=C(Nc1cccc(Cl)c1)Nc1cccc(Cl)c1 |  |  |  |  |  |  | 2.28 µM | > 100 µM | 5.79 µM | > 100 µM |  |  | 
O=S(=O)(NCCNc1nccc(-c2c(-c3cccc(O)c3)nc3sccn23)n1)c1ccc(F)cc1 |  |  |  |  | 0.939 µM | 11.6 µM | 6.54 µM | 25 µM | 2.39 µM | 14.9 µM |  |  | 
CN(C)CCNC(=O)c1cccc2nc3ccc4ccccc4c3nc12 | 0.446 µM | 0.224 µM |  | 10 µM |  |  |  |  |  |  |  |  | 
CCCNc1nc(N(C)O)nc(N(C)O)n1 |  |  |  |  | 4.95 µM | > 100 µM | 3.9 µM | > 100 µM | 2.44 µM | > 100 µM |  |  | 
CC1=C(N2CC2)C(=O)C(CO)=C(N2CC2)C1=O |  |  |  |  | 0.0386 µM and 0.0393 µM | 0.169 µM and 0.151 µM |  | 0.529 µM | 0.00487 µM | 0.0938 µM and 0.0967 µM |  | 0.0284 µM and 0.0259 µM | 0.138 µM and 0.106 µM
COC(=O)/C(C#N)=C\N1CCN(C(=O)c2ccco2)C1=S |  |  |  |  | 6.82 µM | 46.5 µM | 4.63 µM | 67.1 µM |  |  |  |  | 
COc1ccc(CN2c3ccccc3Sc3ccccc32)cc1F |  |  |  |  | 0.198 µM | 0.469 µM |  |  | 0.464 µM | > 100 µM |  |  | 
COc1ccc(/C=C2/C(=O)N(C(=O)c3ccccc3O)N=C2C)cc1OC |  | 65.4 µM | > 100 µM | > 100 µM |  | > 100 µM |  |  |  | 33.9 µM |  |  | > 100 µM

Structure (SMILES) | TGI (HOP-18 NSCLC) | TGI (M19-MEL melanoma) | TGI (XF 498 CNS) | TGI (SNB-78 CNS) | GI50 (MDA-MB-435) | TGI (MDA-MB-435) | GI50 (T-47D breast) | TGI (T-47D breast) | GI50 (MCF7 breast) | TGI (MCF7 breast) | TGI (RXF-631 renal) | GI50 (MDA-N) | TGI (MDA-N)
CCN1CCN(CCOc2ccc(CNc3ccc4nc(CCC5CCCCC5)[nH]c4c3)cc2)CC1 |  |  |  |  | 1.78 µM | 3.73 µM | 1.93 µM | 5.41 µM | 1.8 µM | 5.84 µM |  |  | 
O=C1C2=C(C(=O)c3c(O)ccc(O)c31)N(c1ccc(N3CCOCC3)nc1)Cc1ccccc1O2 |  |  |  |  | 0.321 µM | 1.05 µM | 0.205 µM | 0.9 µM | 0.161 µM | 0.658 µM |  |  | 
O=C(Oc1cccnc1)c1ccccc1Nc1ccnc(C(F)(F)F)c1 |  |  |  |  |  |  | 23 µM | 51.5 µM | 0.0865 µM | > 45.5 µM |  |  | 
Cn1cc(-c2csc(-c3c[nH]c4ncccc34)n2)c2cc(Br)cnc21 |  |  |  |  | 3.17 µM | 32.8 µM | 1.8 µM | > 100 µM | 6.77 µM | > 100 µM |  |  | 
Oc1nc(NCCc2ccccc2)sc1/C=C1\C=Nc2ncccc21 |  |  |  |  | 2.41 µM and 2.83 µM | 8.54 µM and 12.2 µM | 2.15 µM and 3.22 µM | 9.09 µM and 8.2 µM | 2.79 µM and 2.95 µM | 11.3 µM and 11.5 µM |  |  | 
O=C(CCCn1c2c(sc3ncccc32)c(=O)n2nnc(-c3ccccc3)c12)NCCc1cnc[nH]1 |  |  |  |  | 0.489 µM | 20.5 µM | 1.87 µM | 21.6 µM | 18 µM | > 100 µM |  |  | 
O=C(c1cc2ccccc2[nH]1)C(O)(c1cc2ccccc2[nH]1)c1cc2ccccc2[nH]1 |  |  |  |  |  |  |  |  |  |  | > 246 µM |  | 
CCOc1ccccc1NC(=O)C(=O)CC(=O)C1=C(C)Nc2ccccc2S1 |  | > 100 µM | > 100 µM | > 100 µM |  |  |  |  |  |  |  |  | 
O=c1[nH]c(=S)[nH]c2c1sc(=S)n2-c1ccccc1 | > 100 µM | > 100 µM | > 100 µM | > 100 µM |  |  |  |  |  |  |  |  | 
C=C1CC[C@@H]2C(C)(C)[C@@H](O)CC[C@@]2(C)[C@@H]1COc1ccc2ccc(=O)oc2c1 |  |  |  |  | 13.6 µM | 27.6 µM | 5.81 µM | 32.5 µM | 8.02 µM | 24.7 µM |  |  | 
N#Cc1ccc(Oc2nccc(-c3c(-c4ccc(F)cc4)ncn3C3CCNCC3)n2)cc1 |  |  |  |  | > 15.1 µM | > 25 µM | > 25 µM | > 25 µM | 10.7 µM | > 25 µM |  |  | 
O=C(N[C@H](c1ccc(Cl)c(Cl)c1)C1CNC1)c1ccc2cnccc2c1 |  |  |  |  | 2.84 µM | 11.8 µM | 2.29 µM | 13.5 µM | 3.25 µM | 13.9 µM |  |  | 
CCC(=O)C1=C(OC(C)=O)C2Cc3c(n(C)c4ccccc34)C(C1)N2C (stereo not drawn) | > 100 µM | > 100 µM |  | 56.4 µM |  |  |  |  |  |  | 67.2 µM |  | 
Nc1nc(N)c2cc(CNc3ccc(Cl)c(Cl)c3)ccc2n1 |  |  |  |  | 0.38 µM | 1.78 µM | 1.54 µM | 2.9 µM | 0.775 µM | 2.05 µM |  |  | 
O=C(CC(=O)N1N=C(n2ccc3ccccc32)CC1c1ccccc1)Nc1cccc(Cl)c1 (stereo not drawn) | > 100 µM | > 100 µM |  | > 100 µM |  |  |  |  |  |  | > 100 µM |  | 
CCCc1cc(=O)oc2c(C(=O)CC(C)C)c(O)c(CC=C(C)C)c(O)c12 |  |  |  |  | 11.8 µM | 43.1 µM | 9.33 µM | 40.3 µM | 7.83 µM | > 50 µM |  |  | 
